Assay results taken from paper PMC3262893 (Phytochemistry, 2011).
*1 amine or outer side, *2 acyl side, *3 side chain or, on linkers, in order; H or OH if unused. Where a SMILES comes first, the peptide text is derived from it. Bridges are numbered along the chain shown (N, C = ends). [ ]: non-standard residue; d: D form. ξ: configuration not given here. X3 = CC(=O)N(C)C(Cc1ccc(O)cc1)C(=O)OC(CC(O)C(O)CC(C)C)CC(N[*:2])C(O)C(=O)[*:1]; X2 = COc1ccc(CCC(N[*:1])C(=O)[*:2])cc1; d(aIle) = CC[C@H](C)[C@@H](N)C(=O)O; hTyr = N[C@@H](CCc1ccc(O)cc1)C(=O)O; hPhe = N[C@@H](CCc1ccccc1)C(=O)O; X1 = C/C=C(/N[*:1])C(=O)[*:2]; ξhPhe = NC(CCc1ccccc1)C(=O)O; NMeA = CN[C@@H](C)C(=O)O; CO = O=C([*:1])[*:2]

Target: 20S proteasome, human (Homo sapiens, UniProt P28074)
Assay: 20S proteasome assay
Type: biochemical
Conditions: chymotrypsin-like activity; for 20S proteasome inhibitory activity: at 50 μM; for IC50: read-out: 20S proteasome inhibition IC50

SMILES	20S proteasome inhibitory activity	IC50 [µM]
CC[C@H](C)[C@@H]1NC(=O)[C@H](NC(=O)N[C@H](Cc2ccccc2)C(=O)O)CCCCNC(=O)[C@H](CCc2ccccc2)NC(=O)[C@H](C)N(C)C(=O)[C@H](CCc2ccc(O)cc2)NC1=O [compound 1, Lyngbyaureidamide A] ({dF-CO}-[dK]I[hTyr][NMeA][hPhe]; lactam 1-C)	not active	
C/C=C1/NC(=O)[C@H](CO)NC(=O)[C@@H]([C@@H](C)CC)NC(=O)[C@@H]2CCCN2C(=O)[C@@H]2CCCN2C(=O)CNC(=O)[C@H](CCC(N)=O)NC(=O)C(O)C(CC(CC(O)C(O)CC(C)C)OC(=O)C(Cc2ccc(O)cc2)N(C)C(C)=O)NC(=O)[C@@H]2CCCN2C(=O)C(CCc2ccc(OC)cc2)NC(=O)[C@H]([C@@H](C)O)NC1=O (stereo partly shown) [compound 3, Lyngbyazothrin C] (QGPP[d(aIle)]S[X1]T[X2]P; linker N-C via X3)		7.1
CC[C@H](C)[C@@H]1NC(=O)[C@H](NC(=O)N[C@H](Cc2ccccc2)C(=O)O)CCCCNC(=O)[C@H](Cc2ccccc2)NC(=O)[C@H](C)N(C)C(=O)[C@H](CCc2ccc(O)cc2)NC1=O [compound 2, Lyngbyaureidamide B] ({dF-CO}-[dK]I[hTyr][NMeA]F; lactam 1-C)	not active	
C/C=C1/NC(=O)[C@H](CO)NC(=O)[C@@H]([C@@H](C)CC)NC(=O)[C@@H]2CCCN2C(=O)[C@@H]2CCCN2C(=O)CNC(=O)[C@H](CCC(N)=O)NC(=O)C(O)C(CC(CC(O)C(O)CC(C)C)OC(=O)C(Cc2ccc(O)cc2)N(C)C(C)=O)NC(=O)[C@@H]2CCCN2C(=O)C(CCc2ccccc2)NC(=O)[C@H]([C@@H](C)O)NC1=O (stereo partly shown) [compound 4, Lyngbyazothrin D] (QGPP[d(aIle)]S[X1]T[ξhPhe]P; linker N-C via X3)		19.2
